From PMC12814185, “Receptor-Mediated Shuttling of a D‑Amino Acid Peptide Achieves High Nanomolar Cytosolic Concentrations” (Journal of the American Chemical Society, 2025)
Like-named read-outs stand apart in the source and are kept apart here. Bridges are numbered along the chain shown (N, C = ends). Roman numbers before positions name the chains, in order. Triazole bridges read from a SMILES are 1,4-linked. Where no end group is shown, it is not given here. Side-chain parts run from the residue outwards. [ ]: non-standard residue; d: D form. The star is where a group is joined. X1 = CN1C(=CC=CC=CC2=[N+](CCCCCC(=O)*)c3ccc(S(=O)(=O)[O-])cc3C2(C)C)C(C)(C)c2cc(S(=O)(=O)O)ccc21; Lys(N3) = [N-]=[N+]=NCCCC[C@H](N)C(=O)O; Cit = NC(=O)NCCC[C@H](N)C(=O)O; d(hCys) = N[C@H](CCS)C(=O)O; PEG3 = NCCOCCOCCOCCC(=O)O; Pra = C#CC[C@H](N)C(=O)O

Biological target: T1, CMKLR1 (Homo sapiens, UniProt Q99788)
T1 construct: expressed in transfected cells; host or cells: COS-7 (stably transfected, CMKLR1-eYFP + Δ6Gαqi4myr)
T1 sequence (Q99788 1-373): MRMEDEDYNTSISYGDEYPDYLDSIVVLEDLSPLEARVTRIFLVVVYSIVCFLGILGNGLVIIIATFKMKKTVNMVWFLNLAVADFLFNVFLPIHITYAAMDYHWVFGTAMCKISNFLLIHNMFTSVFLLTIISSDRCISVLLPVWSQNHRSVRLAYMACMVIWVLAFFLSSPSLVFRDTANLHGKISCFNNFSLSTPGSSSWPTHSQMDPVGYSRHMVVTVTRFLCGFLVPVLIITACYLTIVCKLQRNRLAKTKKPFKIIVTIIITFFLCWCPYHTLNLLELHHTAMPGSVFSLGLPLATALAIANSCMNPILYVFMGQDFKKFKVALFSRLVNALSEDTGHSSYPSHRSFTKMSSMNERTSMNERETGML
Assay: Ca2+ flux assay in COS-7_CMKLR1-eYFP_Δ6Gαqi4myr cells
Assay type: cell-based
Conditions: maximum signal over baseline normalized to peptide 1, at least two independent experiments in duplicate

I: GSVSHHHHHHGGHHHH[PEG3][dK]([PEG3-X1])[dD][dW][dW][dP][dL][dA][dF][dE][dA][dL][dL][dR]GEV[Cit][PEG3][Pra]-NH2 / II: Ac-[Lys(N3)]YFP[d(hCys)]QFAFC-OH (triazole I:36-II:1; disulfide II:5-II:10) [3Cy]
EC50 (read-out: EC50): 220 nM
EC50 (read-out: pEC50 ± SEM (converted)): 219 nM
